Values joined by “and” are separate entries in the source; they are usually repeats but may differ in a detail not shown here. Equal values may be shown once. “Also recorded” adds a separate entry of the source. Read-outs that look alike come from different tables or passages of the source.
Columns and labels:
Assay type in all cases: in vivo, human
[1] = test system: circadian rhythms in humans (jet lag); test: Example 1: Subject A, flight Melbourne-North Carolina-Melbourne, melatonin at local bedtime
Source text: Subject A was a Professor of Physiology who had never taken melatonin before. |Flight from Melbourne → North Carolina, U.S.A. → Melbourne. |Details of activity schedule, sleeping time, melatonin administration. In this example Subject A used a preparation of crystalline melatonin in a gelatin capsule.

[2] = test system: circadian rhythms in humans (jet lag); test: Example 3: Subject A, flight Melbourne-Stockholm-London-Melbourne, melatonin at local bedtime; conditions: 5 mg oral
Source text: |Subject A Flight from Melbourne → Stockholm → London |Detail of activity schedule, sleeping times, melatonin adminsitration.

[3] = Example 9: absorption and clearance of orally administered melatonin, plasma radioimmunoassay
Source text: This was two hours after a light breakfast of apple juice, cereal and tea. Blood sampling was continued until 1400 hrs. The blood was immediately centrifuged, and the plasma frozen until assayed for melatonin using a specific radioimmunoassay developed in the inventors' laboratory as a modification of the procedure originally described by D. J. Kennaway et al. (Endocrinology 110, 1766, 1982.) The results are shown in the accompanying FIG. 2.

[4] = test system: circadian rhythms in humans (jet lag, body temperature rhythm); test: Example 4: Subject A, round-the-world flight, melatonin with rectal temperature record (Vitalog PMS8)
Source text: Subject A Flight from Melbourne→Geneva→London→Chapel Hill, N.C.→Melbourne 18.9.83-30.9.83. […] During this experiment use was made of a portable Vitalog PMS8 mini computer to record the temperature of Subject A. The Vitalog PMS8 recorded body temperature at ten minute intervals utilizing a rectal temperature probe. […] A discussion of the temperature record follows. During this flight Subject A wore the Vitalog PMS8 mini computer and rectal probe for the continuous recording of their deep body temperature. The equipment malfunctioned after 4 days due to premature battery failure. From 18.9.83- 23.9.83 Subject A kept a detailed daily log of quality and nature of sleep, modd, and alertness according to a technique developed by NASA. […] The dark, dotted regions represent dark periods. The time scale is for Melbourne time no matter where Subject A is identified by one of the letters A, B, C, D or E. Recordings of dark periods B, C and D have been repeated to give continuity to the record. The black arrows identify the times of administration of melatonin.

[5] = test system: circadian rhythms in humans (jet lag); test: Example 8: Subject E, flight London-Melbourne; conditions: 5 mg at bedtime; for symptoms of jet-lag: Easterly flight London-Melbourne
Source text: Subject E Flight from London→Melbourne→London 30.12.83-16.1.84

[6] = test system: circadian rhythms in humans (jet lag)
Protocol: Subject D Flight from Melbourne→London→Edinburgh→London→Melbourne 23.3.84-2.4.84 The subject, a Clinical Professor who had never taken Melatonin before, was given gelatin capsules containing 5 mg Melatonin and instructed to take one capsule on going to bed in the evening (local time) after arrival at their destination, and to take a further capsule if they awoke in the night.

COc1ccc2[nH]cc(CCNC(C)=O)c2c1 [melatonin, 5-methoxy-N-acetyltryptamine]
symptoms of jet lag / fatigue (comment) ([1]; 2.5-5.0 mg oral melatonin at bedtime and on waking): no symptoms of jet lag whatsoever; also recorded: never felt any fatigue whatsoever | feeling on awakening after melatonin sleep (diary) ([1]; 2.5 or 5.0 mg oral per dose): Felt fresh, relaxed, not jet-lagged; also recorded: felt fresh, relaxed | sleep after taking melatonin (diary) ([1]; 2.5 or 5.0 mg oral per dose): fell asleep again | time to fall asleep again after taking additional melatonin ([1]; awoke during the night in North Carolina, oral crystalline melatonin in gelatin capsule): ≤ 15 min | sleep after taking melatonin (diary, comment) [2]: sleep well at an inappropriate time of the day | feeling jet-lagged (comment) ([2]; 8-9 hour time change): At no time during the day either in Sweden or on their return to Melbourne did they feel jet-lagged | feeling on awakening / during day after melatonin sleep (diary) ([2]; listed as Melatonin): Feeling fine; also recorded: Felt good; also recorded: feeling good; also recorded: Felt fine | sleep after taking melatonin (diary, comment) ([2]; listed as Melatonin): fell asleep again; also recorded: good sleep; also recorded: slept well; also recorded: sleep until 2330 hrs; also recorded: asleep 2400 hrs | time to fall asleep after taking melatonin (diary) ([2]; return flight after Singapore): 3/4 | plasma melatonin concentration at which subjective feelings of drowsiness were experienced ([3]; Subject A, 5 mg oral): exceeded 2 ng/ml | subjective effects coincident with maximal plasma levels ([3]; Subject A, 5 mg oral): yawning and sleepiness | Tmax ([3]; human, plasma, po, 5 mg, Subject A, 5 mg oral in gelatin capsule, read-out: time after ingestion to peak plasma concentration (converted)): 1.1 h | plasma values 260 minutes after ingestion relative to normal nocturnal values of around 100 pg/ml plasma ([3]; in vivo, po): 10 times higher | feeling on awakening / during day after melatonin sleep (diary) ([4]; 5 mg oral, listed as Melatonin): feeling excellent; also recorded: feeling drowsy, slight headache; also recorded: feeling fine; also recorded: feeling good; also recorded: Felt fine; also recorded: tired and sleepy and cold; also recorded: Felt very sleepy, but this soon passed | sleep after taking melatonin (diary) ([4]; 5 mg oral, listed as Melatonin): Fell asleep at once; also recorded: Did not fall asleep; also recorded: half an hour; also recorded: slept soundly | time to fall asleep after taking melatonin (diary) ([4]; 5 mg oral, listed as Melatonin): 30 min and 25 min | subjective symptoms of jet-lag (comment) ([4]; 5 mg oral, round-the-world flight in Westerly direction): no subjective symptoms of jet-lag | time of maximal body temperatures ([4]; after arrival in Geneva, rectal probe): around midnight Melbourne time | re-entrainment of body temperature rhythm ([4]; rectal temperature, after arrival in Geneva, FIG. 1): re-entrained extremely rapidly to Geneva time | time of lowest body temperatures ([4]; third and fourth sleep periods in Geneva, rectal probe): around mid-day Melbourne time | sleep after taking melatonin [5]: slept well | symptoms of jet-lag [5]: no signs of jet-lag on the 3rd day | symptoms of jet-lag ([5]; listed as Melatonin): no symptoms of jet-lag; also recorded: appeared to prevent all symptoms of jet-lag | sleep after taking melatonin ([5]; listed as Melatonin): excellent night's sleep | sleep after taking melatonin ([6]; Subject D, 5 mg (5+5 mg on Bombay-London leg), listed as Melatonin): did not induce sleep when taken on the outward journey | napping during daytime meeting talks ([6]; Subject D, much less than when using Mogadon): napped minimally | effects of discontinuing melatonin ([6]; human, in vivo): no adverse effects
